The text below walks through data of ChEMBL document CHEMBL4376806, “Antibiotic Adjuvants: Make Antibiotics Great Again!” (2019).

Common to all, as to type: functional
Assay [1] has as its system Escherichia coli. In words: Potentiation of novobiocin-induced antibacterial activity against Escherichia coli W3110 assessed as novobiocin MIC at 64 ug/ml after 20 hrs by liquid microdilution method (reference value: 128 ug/ml). As to conditions: K-12 substr. W3110, 20 h. (In general: Broth dilution looks for growth in wells or tubes with falling amounts of substance.)

For assay [2], the system named is Escherichia coli. In words: Potentiation of erythromycin-induced antibacterial activity against Escherichia coli W3110 assessed as erythromycin MIC at 64 ug/ml after 20 hrs by liquid microdilution method (reference value: 64 ug/ml). As to conditions: K-12 substr. W3110, 20 h.
Assay [3] relates to Klebsiella aerogenes. In words: Potentiation of doxycycline-induced antibacterial activity against Enterobacter aerogenes EA289 assessed as doxycycline MIC at 2.5 uM after 18 hrs (reference value: 40 ug/ml). As to conditions: EA289, 18 h.
Assay [4] deals with Pseudomonas aeruginosa. In words: Potentiation of doxycycline-induced antibacterial activity against Pseudomonas aeruginosa PAO1 assessed as doxycycline MIC at 2.5 uM after 18 hrs (reference value: 20 ug/ml). As to conditions: PAO1, 18 h.
A further assay has as its system Klebsiella pneumoniae. In words: Potentiation of doxycycline-induced antibacterial activity against Klebsiella pneumoniae KPC2 assessed as doxycycline MIC at 2.5 uM after 18 hrs (reference value: 10 ug/ml). As to conditions: KPC2, 18 h.
For assay [5], the system named is Pseudomonas aeruginosa. In words: Potentiation of doxycycline-induced antibacterial activity against Pseudomonas aeruginosa PAO1 assessed as doxycycline MIC at 2 ug/ml after 24 hrs by broth microdilution method (reference value: 16 ug/ml). Particulars: PAO1, 24 h.
Assay [6] deals with Klebsiella aerogenes. In words: Potentiation of doxycycline-induced antibacterial activity against Enterobacter aerogenes EA289 assessed as doxycycline MIC at 2 ug/ml after 24 hrs by broth microdilution method (reference value: 40 ug/ml). Particulars: EA289, 24 h.
The subject of assay [7] is Klebsiella aerogenes. In words: Potentiation of doxycycline-induced antibacterial activity against Enterobacter aerogenes EA289 assessed as doxycycline MIC at 5 uM after 18 hrs (reference value: 40 ug/ml). Particulars: EA289, 18 h.
Assay [8] relates to Pseudomonas aeruginosa. In words: Potentiation of doxycycline-induced antibacterial activity against Pseudomonas aeruginosa PAO1 assessed as doxycycline MIC at 1.25 uM after 18 hrs (reference value: 20 ug/ml). As to conditions: PAO1, 18 h.
Assay [9] concerns Escherichia coli. In words: Potentiation of novobiocin-induced antibacterial activity against Escherichia coli W3110 assessed as novobiocin MIC at 8 ug/ml after 20 hrs by liquid microdilution method (reference value: 128 ug/ml). Particulars: K-12 substr. W3110, 20 h.
Assay [10] relates to Escherichia coli. In words: Potentiation of erythromycin-induced antibacterial activity against Escherichia coli W3110 assessed as erythromycin MIC at 8 ug/ml after 20 hrs by liquid microdilution method (reference value: 64 ug/ml). Particulars: K-12 substr. W3110, 20 h.
For assay [11], the system named is Escherichia coli. In words: Potentiation of chloramphenicol-induced antibacterial activity against Escherichia coli AG100 assessed as chloramphenicol MIC at 0.4 ug/ml after 18 hrs (reference value: 8 ug/ml). As to conditions: AG100, 18 h.
The subject of assay [12] is Escherichia coli. In words: Potentiation of ciprofloxacin-induced antibacterial activity against Escherichia coli AG100 assessed as ciprofloxacin MIC at 0.4 ug/ml after 18 hrs (reference value: 0.25 ug/ml). As to conditions: AG100, 18 h.
The subject of assay [13] is Escherichia coli. In words: Potentiation of tetracycline-induced antibacterial activity against Escherichia coli AG100 assessed as tetracycline MIC at 0.4 ug/ml after 18 hrs (reference value: 2 ug/ml). As to conditions: AG100, 18 h.
For assay [14], the system named is Escherichia coli. In words: Potentiation of cefepime-induced antibacterial activity against Escherichia coli AG100 assessed as cefepime MIC at 0.4 ug/ml after 18 hrs (reference value: 0.5 ug/ml). As to conditions: AG100, 18 h.
Assay [15] has as its system Escherichia coli. In words: Potentiation of erythromycin-induced antibacterial activity against Escherichia coli AG100 assessed as erythromycin MIC at 0.4 ug/ml after 18 hrs (reference value: 512 ug/ml). As to conditions: AG100, 18 h.
Assay [16] deals with Pseudomonas aeruginosa. In words: Potentiation of chloramphenicol-induced antibacterial activity against Pseudomonas aeruginosa PAO1 assessed as chloramphenicol MIC at 3.2 ug/ml after 18 hrs (reference value: 512 ug/ml). As to conditions: PAO1, 18 h.
Assay [17] concerns Pseudomonas aeruginosa. In words: Potentiation of ciprofloxacin-induced antibacterial activity against Pseudomonas aeruginosa PAO1 assessed as ciprofloxacin MIC at 3.2 ug/ml after 18 hrs (reference value: 16 ug/ml). Particulars: PAO1, 18 h.
Assay [18] has as its system Pseudomonas aeruginosa. In words: Potentiation of tetracycline-induced antibacterial activity against Pseudomonas aeruginosa PAO1 assessed as tetracycline MIC at 3.2 ug/ml after 18 hrs (reference value: 16 ug/ml). As to conditions: PAO1, 18 h.
Assay [19] has as its system Pseudomonas aeruginosa. In words: Potentiation of cefepime-induced antibacterial activity against Pseudomonas aeruginosa PAO1 assessed as cefepime MIC at 3.2 ug/ml after 18 hrs (reference value: 8 ug/ml). Particulars: PAO1, 18 h.
Assay [20] has as its system Pseudomonas aeruginosa. In words: Potentiation of erythromycin-induced antibacterial activity against Pseudomonas aeruginosa PAO1 assessed as erythromycin MIC at 3.2 ug/ml after 18 hrs (reference value: 512 ug/ml). As to conditions: PAO1, 18 h.
Assay [21] deals with Klebsiella aerogenes. In words: Potentiation of ciprofloxacin-induced antibacterial activity against Enterobacter aerogenes ATCC 13048 assessed as ciprofloxacin MIC at 1.6 ug/ml after 18 hrs (reference value: 0.5 ug/ml). Particulars: ATCC 13048, 18 h.
Assay [22] concerns Klebsiella aerogenes. In words: Potentiation of chloramphenicol-induced antibacterial activity against Enterobacter aerogenes ATCC 13048 assessed as chloramphenicol MIC at 1.6 ug/ml after 18 hrs (reference value: 4 ug/ml). As to conditions: ATCC 13048, 18 h.
For assay [23], the system named is Klebsiella aerogenes. In words: Potentiation of tetracycline-induced antibacterial activity against Enterobacter aerogenes ATCC 13048 assessed as tetracycline MIC at 1.6 ug/ml after 18 hrs (reference value: 2 ug/ml). Particulars: ATCC 13048, 18 h.
Assay [24] deals with Klebsiella aerogenes. In words: Potentiation of cefepime-induced antibacterial activity against Enterobacter aerogenes ATCC 13048 assessed as cefepime MIC at 1.6 ug/ml after 18 hrs (reference value: 0.25 ug/ml). As to conditions: ATCC 13048, 18 h.
For assay [25], the system named is Klebsiella aerogenes. In words: Potentiation of erythromycin-induced antibacterial activity against Enterobacter aerogenes ATCC 13048 assessed as erythromycin MIC at 1.6 ug/ml after 18 hrs (reference value: 512 ug/ml). As to conditions: ATCC 13048, 18 h.
For assay [26], the system named is Pseudomonas aeruginosa. In words: Potentiation of doxycycline-induced antibacterial activity against Pseudomonas aeruginosa PAO1 assessed as doxycycline MIC at 1.22 ug/ml by broth micro-dilution method (reference value: 32 ug/ml).
Assay [27] deals with Pseudomonas aeruginosa. In words: Synergistic antibacterial activity against Pseudomonas aeruginosa assessed as fractional inhibitory concentration index in presence of doxycycline after 18 hrs by checkerboard assay.

As to `Cl.Cl.Cl.Cl.NCCCNCCCCNCCCNC(=O)Cc1cccc2ccccc12`, the minimal inhibitory concentration (MIC) (usually the least concentration at which growth counts as inhibited) was 1 µg/mL in the assay on Escherichia coli [1] and 4 µg/mL with Escherichia coli [2].
Consider `Cl.Cl.Cl.NCCCNCCCNC1CCCCCCCCCCCCCC1`, for which the MIC in the assay on Klebsiella aerogenes [3], in the assay on Pseudomonas aeruginosa [4] and in the assay with Klebsiella pneumoniae was 2 µg/mL throughout.
On to `CC(C)OC(=O)CC[C@@H](C)[C@H]1CC[C@H]2[C@@H]3CC[C@H]4C[C@@H](NCCCNCCCNCCCCNCCCN)CC[C@]4(C)[C@H]3C[C@H](O)[C@]12C`, for which the results for the MIC in the assay with Pseudomonas aeruginosa [5] and with Klebsiella aerogenes [6] were 2 µg/mL and 0.5 µg/mL, respectively.
Consider `Cl.Cl.Cl.NCCCCNCCCCNC1CCCCCCCCCCCCCC1`, for which the MIC in the assay on Klebsiella pneumoniae, with Klebsiella aerogenes [7] and in the assay on Pseudomonas aeruginosa [8] was 2 µg/mL in each case.
In the case of `COc1ccccc1CNCCCCCCNCCCCCCCCNCCCCCCNCc1ccccc1OC` [METHOCTRAMINE], the MIC in the assay on Escherichia coli [9] and in the assay with Escherichia coli [10] was 16 µg/mL throughout.
As to `CC(C)[C@@H](CC[C@@H](C)[C@H]1CC[C@H]2[C@@H]3[C@H](O)C[C@H]4C[C@@H](NCCCNCCCCN)CC[C@]4(C)[C@H]3CC[C@]12C)OS(=O)(=O)O` [SQUALAMINE], the MIC in the assay on Escherichia coli [11] is 0.5 µg/mL; in the assay on Escherichia coli [12], 0.03 µg/mL; in the assay on Escherichia coli [13] it was 0.125 µg/mL; in the assay with Escherichia coli [14], 0.06 µg/mL; in the assay on Escherichia coli [15] it was 256 µg/mL; in the assay on Pseudomonas aeruginosa [16] it was 16 µg/mL. In addition, the MIC was below 1 µg/mL with Pseudomonas aeruginosa [17]; 4 µg/mL in the assay on Pseudomonas aeruginosa [18]; 1 µg/mL in the assay on Pseudomonas aeruginosa [19]; 256 µg/mL in the assay with Pseudomonas aeruginosa [20]; 0.015 µg/mL in the assay on Klebsiella aerogenes [21]; 0.25 µg/mL with Klebsiella aerogenes [22]. For the same compound, the MIC amounted to 0.25 µg/mL in the assay on Klebsiella aerogenes [23], 0.03 µg/mL in the assay with Klebsiella aerogenes [24] and 128 µg/mL with Klebsiella aerogenes [25].
Take `CC(C)=C/C=C\C(C)=C/CC/C(C)=C/CNCCCNCCCCNCCCN.Cl.Cl.Cl.Cl`: the MIC with Pseudomonas aeruginosa [26] stood at 2 µg/mL. Besides, in the assay on Pseudomonas aeruginosa [27], the “fractional inhibitory concentration index (FICI)” value worked out at 0.09.
